Experimental data taken from US11076594B2, “Pyrazolone compound or salt thereof, preparation method therefor, herbicide composition and use thereof” (QINGDAO KINGAGROOT CHEMICAL COMPOUNDS CO., LTD., priority 2015, dated 2021).

Experiments:
Assay type in all cases: in vivo
[1] = test system: Indian mallow; experiment: weed control effect in post-emergence stage (Table 1); design: key: Level 10: completely dead; Level 9: above 95% growth control rate; Level 8: above 90% growth control rate; Level 7: above 80% growth control rate; Level 6: above 70% growth control rate; Level 5: above 60% growth control rate; Level 4: above 50% growth control rate; Level 3: above 20% growth control rate; Level 2: 5%-20% growth control rate; Level 1: below 5% growth control rate; conditions: post-emergence spray at 4-5 leaf stage, 250 g/ha active ingredient with 450 kg/ha water, rated after 3 weeks in greenhouse
In short: (§1)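 Read-out is growth control rate based on fresh weight, determined 3 weeks after treatment. Plants raised from seed in potted soil (0.5-2 cm cover) in greenhouse were sprayed 2-3 weeks post-sowing at 4-5 leaves with acetone/Tween 80 aqueous compound solutions.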

[2] = test system: bidens bipinnata; experiment: as above; design: key: Level 10: completely dead; Level 9: above 95% growth control rate; Level 8: above 90% growth control rate; Level 7: above 80% growth control rate; Level 6: above 70% growth control rate; Level 5: above 60% growth control rate; Level 4: above 50% growth control rate; Level 3: above 20% growth control rate; Level 2: 5%-20% growth control rate; Level 1: below 5% growth control rate; conditions: post-emergence spray at 4-5 leaf stage, 250 g/ha active ingredient with 450 kg/ha water, rated after 3 weeks in greenhouse
In short: as §1

[3] = test system: crab grass; experiment: as above; design: key: Level 10: completely dead; Level 9: above 95% growth control rate; Level 8: above 90% growth control rate; Level 7: above 80% growth control rate; Level 6: above 70% growth control rate; Level 5: above 60% growth control rate; Level 4: above 50% growth control rate; Level 3: above 20% growth control rate; Level 2: 5%-20% growth control rate; Level 1: below 5% growth control rate; conditions: post-emergence spray at 4-5 leaf stage, 250 g/ha active ingredient with 450 kg/ha water, rated after 3 weeks in greenhouse
In short: as §1

[4] = test system: echinochloa; experiment: as above; design: key: Level 10: completely dead; Level 9: above 95% growth control rate; Level 8: above 90% growth control rate; Level 7: above 80% growth control rate; Level 6: above 70% growth control rate; Level 5: above 60% growth control rate; Level 4: above 50% growth control rate; Level 3: above 20% growth control rate; Level 2: 5%-20% growth control rate; Level 1: below 5% growth control rate; conditions: post-emergence spray at 4-5 leaf stage, 250 g/ha active ingredient with 450 kg/ha water, rated after 3 weeks in greenhouse
In short: as §1

[5] = test system: foxtail; experiment: as above; design: key: Level 10: completely dead; Level 9: above 95% growth control rate; Level 8: above 90% growth control rate; Level 7: above 80% growth control rate; Level 6: above 70% growth control rate; Level 5: above 60% growth control rate; Level 4: above 50% growth control rate; Level 3: above 20% growth control rate; Level 2: 5%-20% growth control rate; Level 1: below 5% growth control rate; conditions: post-emergence spray at 4-5 leaf stage, 250 g/ha active ingredient with 450 kg/ha water, rated after 3 weeks in greenhouse
In short: as §1

[6] = test system: rorippa indica; experiment: as above; design: key: Level 10: completely dead; Level 9: above 95% growth control rate; Level 8: above 90% growth control rate; Level 7: above 80% growth control rate; Level 6: above 70% growth control rate; Level 5: above 60% growth control rate; Level 4: above 50% growth control rate; Level 3: above 20% growth control rate; Level 2: 5%-20% growth control rate; Level 1: below 5% growth control rate; conditions: post-emergence spray at 4-5 leaf stage, 250 g/ha active ingredient with 450 kg/ha water, rated after 3 weeks in greenhouse
In short: as §1

[7] = test system: wheat; experiment: post-emergence stage experiment, crop (Table 1); conditions: post-emergence spray at 4-5 leaf stage, 250 g/ha active ingredient with 450 kg/ha water, rated after 3 weeks in greenhouse
In short: as §1

[8] = test system: rice; experiment: post-emergence stage experiment, crop (Table 1); design: key: Level 10: completely dead; Level 9: above 95% growth control rate; Level 8: above 90% growth control rate; Level 7: above 80% growth control rate; Level 6: above 70% growth control rate; Level 5: above 60% growth control rate; Level 4: above 50% growth control rate; Level 3: above 20% growth control rate; Level 2: 5%-20% growth control rate; Level 1: below 5% growth control rate; conditions: post-emergence spray at 4-5 leaf stage, 250 g/ha active ingredient with 450 kg/ha water, rated after 3 weeks in greenhouse
In short: as §1

[9] = test system: alopecurus japonicas; experiment: wheat field resistant weed control, greenhouse spray at 4 leaf stage; conditions: sprayed at 4 leaf stage, 4 weeks after treatment, resistant to ALS and ACCase inhibitor herbicides
Protocol: (§2) The activity level standard of harmful plant destruction (i.e. growth control rate) is as follows:
(§3) The above described growth control rate is fresh weight control rate.
(§4) The seeds of alopecurus japonicas, flixweed, shepherd's purse, corn gromwell, chickweed, beckmannia syzigachne, and annual ryegrass and wheat seeds were put into a plastic pot loaded with soil, and then covered with 0.5-2 cm soil, the seeds were allowed to grow in good greenhouse environment. The test plants were treated at 4 leaf stage 2-3 weeks after sowing. The test compounds of the present invention were dissolved in acetone respectively, then added with methyl oleate emulsion and diluted by certain amount of water to certain concentration. The solution was sprayed to the plant with a sprayer. Then the plants were cultured for 4 weeks in greenhouse.

[10] = test system: wheat; experiment: wheat field test, crop selectivity, greenhouse spray at 4 leaf stage; conditions: sprayed at 4 leaf stage, 4 weeks after treatment
Protocol: as §2, §3, §4

[11] = test system: corn; experiment: post-emergence stage experiment, crop (Table 1); conditions: post-emergence spray at 4-5 leaf stage, 250 g/ha active ingredient with 450 kg/ha water, rated after 3 weeks in greenhouse
In short: as §1

SMILES	weed control effect, Indian mallow (level) [1]	weed control effect, Bidens bipinnata (level) [2]	weed control effect, Crab grass (level) [3]	weed control effect, Echinochloa (level) [4]	weed control effect, Green foxtail (level) [5]	weed control effect, Rorippa indica (level) [6]	effect on crop, Wheat (level) [7]	effect on crop, Rice (level) [8]	Alopecurus japonicas weed controlling effect (activity level) ([9]; 1 g/mu)	Alopecurus japonicas weed controlling effect (activity level) ([9]; 2 g/mu)	Alopecurus japonicas weed controlling effect (activity level) ([9]; 4 g/mu)	Alopecurus japonicas weed controlling effect (activity level) ([9]; 8 g/mu)	Wheat (activity level, crop damage) ([10]; 2 g/mu)	Wheat (activity level, crop damage) ([10]; 4 g/mu)	Wheat (activity level, crop damage) ([10]; 8 g/mu)	Wheat (activity level, crop damage) ([10]; 16 g/mu)	Wheat (activity level, crop damage) ([10]; 32 g/mu)	effect on crop, Corn (level) [11]
COC(=O)Oc1c(C(=O)c2ccc(C(F)(F)F)c(N3CCCC3=O)c2Cl)c(C)nn1C [Compound 020]	10	9 (Level 9: above 95% growth control rate)	10	10	10	9 (Level 9: above 95% growth control rate)	0	8 (Level 8: above 90% growth control rate)	1 (Level 1: below 5% growth control rate)	6 (Level 6: above 70% growth control rate)	6 (Level 6: above 70% growth control rate)	8 (Level 8: above 90% growth control rate)	1 (Level 1: below 5% growth control rate)	3 (Level 3: above 20% growth control rate)	3 (Level 3: above 20% growth control rate)	4 (Level 4: above 50% growth control rate)	4 (Level 4: above 50% growth control rate)	–
Cc1cc(C)n(-c2c(C(F)(F)F)ccc(C(=O)c3c(C)nn(C)c3OC(=O)c3cn(C)nc3C)c2Cl)n1 [Compound 094]	3 (Level 3: above 20% growth control rate)	2 (Level 2: 5%-20% growth control rate)	3 (Level 3: above 20% growth control rate)	1 (Level 1: below 5% growth control rate)	1 (Level 1: below 5% growth control rate)	0	0	0	–	–	–	–	–	–	–	–	–	1 (Level 1: below 5% growth control rate)
CCc1nn(CC)c(OC(=O)c2cn(C)nc2C)c1C(=O)c1ccc(C(F)(F)F)c(N2CCCCCC2=O)c1Cl [Compound 123]	10	7 (Level 7: above 80% growth control rate)	3 (Level 3: above 20% growth control rate)	10	6 (Level 6: above 70% growth control rate)	3 (Level 3: above 20% growth control rate)	1 (Level 1: below 5% growth control rate)	7 (Level 7: above 80% growth control rate)	–	–	–	–	–	–	–	–	–	4 (Level 4: above 50% growth control rate)
CCn1ncc(C(=O)c2ccc(C(F)(F)F)c(-n3cc(C)cn3)c2Cl)c1O [Compound 136]	10	10	7 (Level 7: above 80% growth control rate)	10	10	10	1 (Level 1: below 5% growth control rate)	10	–	–	–	–	–	–	–	–	–	1 (Level 1: below 5% growth control rate)
CCn1nc(C)c(C(=O)c2ccc(C(F)(F)F)c(N3CCCC3=O)c2Cl)c1OC(=O)c1cn(C)nc1C [Compound 099]	3 (Level 3: above 20% growth control rate)	10	10	10	10	10	4 (Level 4: above 50% growth control rate)	10	–	–	–	–	–	–	–	–	–	4 (Level 4: above 50% growth control rate)
Cn1ncc(C(=O)c2ccc(C(F)(F)F)c(N3CCCCC3=O)c2Cl)c1O [Compound 029]	7 (Level 7: above 80% growth control rate)	7 (Level 7: above 80% growth control rate)	7 (Level 7: above 80% growth control rate)	5 (Level 5: above 60% growth control rate)	9 (Level 9: above 95% growth control rate)	7 (Level 7: above 80% growth control rate)	3 (Level 3: above 20% growth control rate)	1 (Level 1: below 5% growth control rate)	–	–	–	–	–	–	–	–	–	7 (Level 7: above 80% growth control rate)
CCOc1c(C(=O)Oc2c(C(=O)c3ccc(C(F)(F)F)c(N4CCCCC4=O)c3Cl)cnn2C)cnn1C [Compound 032]	10	6 (Level 6: above 70% growth control rate)	10	9 (Level 9: above 95% growth control rate)	10	10	1 (Level 1: below 5% growth control rate)	8 (Level 8: above 90% growth control rate)	–	–	–	–	–	–	–	–	–	4 (Level 4: above 50% growth control rate)
CCn1nc(C)c(C(=O)c2ccc(C(F)(F)F)c(-n3cc(C)cn3)c2Cl)c1OC(=O)c1cn(C)nc1C [Compound 139]	3 (Level 3: above 20% growth control rate)	5 (Level 5: above 60% growth control rate)	8 (Level 8: above 90% growth control rate)	10	10	10	2 (Level 2: 5%-20% growth control rate)	9 (Level 9: above 95% growth control rate)	–	–	–	–	–	–	–	–	–	4 (Level 4: above 50% growth control rate)
CCn1ncc(C(=O)c2ccc(C(F)(F)F)c(N3CCCCC3=O)c2Cl)c1OC(=O)c1cn(C)nc1C [Compound 107]	10	9 (Level 9: above 95% growth control rate)	8 (Level 8: above 90% growth control rate)	10	10	6 (Level 6: above 70% growth control rate)	5 (Level 5: above 60% growth control rate)	8 (Level 8: above 90% growth control rate)	–	–	–	–	–	–	–	–	–	5 (Level 5: above 60% growth control rate)
